Our source for the IC50 values is patent publication US9604998B2, “Inhibitors of the renal outer medullary potassium channel” (MERCK SHARP & DOHME CORP., priority 2013, dated 2017).

The target of experiment [1] is Kir1.1 (ROMK1) (Homo sapiens (Human), UniProt P48048). The experiment is described as follows: Electrophysiology Assay (whole cell voltage clamp, IonWorks Quattro). Particulars: block during voltage step to 0 mV. The format is cell-based. Here is the method:
Chinese hamster ovary cells stably expressing Kir1.1 channels were maintained in T-75 flasks in cell culture media in a humidified 10% CO2 incubator at 37° C. Prior to an experiment, Kir1.1 expression was induced by overnight incubation with 1 mM sodium butyrate. […] After centrifugation, the cell pellet was resuspended in approximately 4.0 mL of bath solution and placed in the IonWorks instrument. The intracellular solution consisted of (in mM): 80 K gluconate, 40 KCl, 20 KF, 3.2 MgCl2, 3 EGTA, 5 Hepes, pH 7.4. Electrical access to the cytoplasm was achieved by perforation in 0.13 mg/mL amphotericin B for 4 min. […] Voltage protocols and current recordings were performed using the IonWorks HT software/hardware system. Currents were sampled at 1 kHz. No correction for liquid junction potentials was used. The test pulse, consisting of a 100 ms step to 0 mV from a holding potential of −70 mV, followed by a 100 ms voltage ramp from −70 mV to +70 mV, was applied before and after a 6 min compound incubation period. Test compounds were prepared by diluting DMSO stock solutions into the bath solution at 3× the final concentration and placed in the instrument in 96-well polypropylene plates. Current amplitudes were measured using the IonWorks software.
(In general: The patch-clamp technique gives a direct electrical read-out from membranes.)

Experiment [2] has as its target hROMK (hKir1.1) (Homo sapiens (Human), UniProt P48048). The experiment is described as follows: Thallium Flux Assay (ROMK channel functional thallium flux, FLIPR-Tetra). The experiment is classed as cell-based. To be noted: HEK293 cells stably expressing hROMK (hKir1.1); read-out: Thallium Flux IC50. Here is the method: HEK293 cells stably expressing hROMK (hKir1.1) were grown at 37° C. in a 10% CO2 humidified incubator in complete growth media: Dulbecco's Modified Eagle Medium supplemented with non-essential amino acids, Penicillin/Streptomycin/Glutamine, G418 and FBS. At >80% confluency, aspirate the media from the flask and rinse with 10 mL Calcium/Magnesium-free PBS. […] To dislodge the cell, gently bang the side of the flask with your hand. Triturate the cells completely and then transfer the cells to 25 mL complete media. Centrifuge at 1,500 rpm for 6 min followed by resuspension in complete growth media and determine cell concentration.
Compound Buffer (per microplate): 20 mL Probenecid/Assay Buffer; 0.3 mM ouabain (10 mM ouabain in water can be stored in amber bottle/aluminum foil at room temperature); Test compound
Stimulant Buffer (prepared at 5× final concentration in 1× FluxOR™ Chloride-Free Buffer): 7.5 mM Thallium sulfate and […] (to give a final assay concentration of 3 mM Thallium/0.3 mM Potassium). Store at 4° C. when not in use. If kept sterile, this solution is good for months.
The ROMK channel functional thallium flux assay is performed in 384 wells, using the FLIPR-Tetra instrument. HEK-hKir1.1 cells are seeded in Poly-D-Lysine microplates and kept in a 37° C.-10% CO2 incubator overnight. On the day of the experiment, the growth media is replaced with the FluxOR™ reagent loading buffer and incubated, protected from light, at ambient temperature (23-25° C.) for 90 min. The loading buffer is replaced with assay buffer±test compound followed by 30 min incubation at ambient temperature, where the Thallium/Potassium stimulant is added to the microplate.
1. Seed HEK-hKir1.1 cells (50 μl at 20,000 cells/well) in 384-well PDL coated Microplates
2. Allow cells to adhere overnight in humidified 37° C./10% CO2 incubator
3. Completely remove cell growth media from microplate and replace with 25 μl loading buffer
4. Incubate Microplate at room temperature, protected form light, for 90 min
5. Remove loading buffer and replace with 25 μl 1× Assay Buffer±test compound.
6. Incubate microplate at room temperature, protected from light, for 30 min
7. […] Excitation=400 nm, Emission=460 & 580 nm. Collect data for ˜10 min.
The fluorescence intensity of wells containing 3 μM of a standard control ROMK inhibitor of the present invention is used to define the ROMK-sensitive component of thallium flux. Fluorescence in the presence of test compounds is normalized to control values to provide % fluorescence change.

Where [3] appears, read: Chinese hamster ovary cells stably expressing Kir1.1, read-out: Electrophysiology IC50.

Structures are written as SMILES. Where two headings read alike, the source gives them in different places.

Chain of hROMK (hKir1.1) (P48048 whole entry): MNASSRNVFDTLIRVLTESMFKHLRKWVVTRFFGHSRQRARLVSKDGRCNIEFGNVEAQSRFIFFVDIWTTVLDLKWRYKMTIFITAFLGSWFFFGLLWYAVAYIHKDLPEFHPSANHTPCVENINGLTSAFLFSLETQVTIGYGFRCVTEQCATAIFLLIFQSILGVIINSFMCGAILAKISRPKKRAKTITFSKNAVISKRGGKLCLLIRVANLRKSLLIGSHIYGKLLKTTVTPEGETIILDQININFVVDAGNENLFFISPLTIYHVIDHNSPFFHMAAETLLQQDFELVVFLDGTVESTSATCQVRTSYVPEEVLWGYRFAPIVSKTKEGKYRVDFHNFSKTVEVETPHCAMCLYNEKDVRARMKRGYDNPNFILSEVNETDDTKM
Chain of Kir1.1 (ROMK1) (P48048 whole entry, species assumed): as the sequence (P48048 whole entry) above

With `COc1cc(C(O)CN2CCN3C[C@@H](c4ccc5c(c4C)COC5=O)OC[C@@H]3C2)ccc1C#N` (single isomer, unassigned) [Example 47], the IC50 – broadly, the concentration that inhibits the measured activity by half – in experiment [1] (setting [3]) was 190 nM; in experiment [2], 250 nM.

As for `COc1cc(CCN2CCN3C[C@H](c4ccc5c(c4C)COC5=O)OC[C@H]3C2)ccc1C#N` [Example 61], the IC50 in experiment [1] (setting [3]) is 120 nM; in experiment [2] it was 330 nM.

Take `Cc1nc(-n2cnnn2)ccc1C(O)CN1CCN2C[C@@H](c3ccc(F)c(C#N)c3C)OC[C@@H]2C1` (single isomer, unassigned) [Example 21]: the 50% inhibitory concentration (IC50) in experiment [2] came out at 260 nM.

As for `Cc1c([C@H]2CN3CCN(CCc4ccc5c(c4C)COC5=O)C[C@H]3CO2)ccc(F)c1C#N` [Example 79], the values for the IC50 in experiment [1] (setting [3]) and in experiment [2] were 70 nM and 270 nM, respectively. Take `COc1cc([C@H]2CN3CCN(CC(O)c4cc(OC)c(C#N)cc4F)C[C@@H]3CO2)ccc1C#N` (stereo partly drawn) [Example 14, (3S,9aR)-8-[2-(4-cyano-2-fluoro-5-methoxyphenyl)-2-hydroxyethyl]-3-(4-cyano-3-methoxyphenyl)octahydropyrazino[2,1-c][1,4]oxazin-5-ium chloride]: the IC50 in experiment [1] (setting [3]) turned out to be 270 nM; in experiment [2], 580 nM.

Take `Cc1cc(-n2cnnn2)ncc1C(O)CN1CCN2C[C@@H](c3ccc(F)c(C#N)c3C)OC[C@@H]2C1` (single isomer, unassigned) [Example 19]: the IC50 in experiment [1] (Electrophysiology IC50, Chinese hamster ovary cells stably expressing Kir1.1) worked out at 260 nM; in experiment [2], 440 nM. As to `Cc1c(CCN2CCN3C[C@@H](c4ccc5c(c4C)COC5=O)OC[C@@H]3C2)ccc2c1COC2=O` [Example 57, 4-Methyl-5-((3R,9aS)-8-(2-(4-methyl-1-oxo-1,3-dihydroisobenzofuran-5-yl)ethyl)octahydropyrazino[2,1-c][1,4]oxazin-3-yl)isobenzofuran-1(3H)-one], the IC50 in experiment [1] (setting [3]) worked out at 90 nM; in experiment [2], 30 nM.

`Cc1c([C@@H]2CN3CCN(CC(O)c4cc(F)c(C#N)c(F)c4)C[C@H]3CO2)ccc2c1COC2=O` (single isomer, unassigned) [Example 49]: the IC50 in experiment [1] (setting [3]) is 50 nM; in experiment [2], 250 nM. For `Cc1c([C@@H](O)CN2CCN3C[C@H](c4ccc5c(c4C)COC5=O)SC[C@@H]3C2)ccc2c1COC2=O` [Example 55, 5-{(3S,9aS)-8-[(2R)-2-hydroxy-2-(4-methyl-1-oxo-1,3-dihydro-2-bcnzofuran-5-yl)ethyl]octahydropyrazino[2,1-c][1,4]thiazin-3-yl}-4-methyl-2-benzofuran-1(3H)-one], in that order: 90 nM and 330 nM. For the compound `Cc1c([C@@H]2CN3CCN(CC4OCCc5c4ccc4c5COC4=O)C[C@H]3CO2)ccc2c1COC2=O` (stereo partly drawn) [Example 109, 6-{[(3R,9aS)-3-(4-methyl-1-oxo-1,3-dihydro-2-benzofuran-5-yl)hexahydropyrazino[2,1-c][1,4]oxazin-8(1H)-yl]methyl}-8,9-dihydro-1H-furo[3,4-f]isochromen-3(6H)-one], the IC50 in experiment [1] (setting [3]) was determined as 50 nM. Consider `Cc1c([C@@H]2CN3CCN(CCc4ccc5c(c4C)COC5=O)C[C@H]3CO2)ccc(F)c1C#N` [Example 80], for which the IC50 in experiment [1] (setting [3]) is 50 nM; in experiment [2], 60 nM.

`COc1cc(CCN2CCN3C[C@H](c4ccc5c(c4C)COC5=O)OC[C@@H]3C2)ccc1C#N` [Example 60]: the IC50 in experiment [1] (setting [3]) came to 180 nM. Turning to `COc1cc([C@H]2CN3CCN(CCc4ccc5c(c4C)COC5=O)C[C@@H]3CO2)ccc1C#N` [Example 75], the IC50 in experiment [1] (setting [3]) worked out at 70 nM; in experiment [2], 110 nM. With `Cc1c(CCN2CCN3C[C@@H](c4ccc5c(c4C)COC5=O)OC[C@H]3C2)ccc2c1COC2=O` [Example 68], the IC50 in experiment [1] (setting [3]) was found to be 140 nM. Consider `Cc1c([C@@H]2CN3CCN(CCc4ccc5c(c4Br)COC5=O)C[C@H]3CO2)ccc2c1COC2=O` [Example 91], for which the values for the IC50 in experiment [1] (setting [3]) and in experiment [2] were 210 nM and 90 nM, respectively. As to `COc1cc(CCN2CCN3C[C@H](c4ccc5c(c4)COC5=O)OC[C@@H]3C2)ccc1C#N` [Example 59], in experiment [1] (setting [3]), the IC50 is 40 nM.

`COc1c([C@@H]2CN3CCN(C[C@H](O)c4ccc5c(c4C)COC5=O)C[C@H]3CO2)ccc(C#N)c1F` [Example 30, (3R,9aS)-3-(4-cyano-3-fluoro-2-methoxyphenyl)-8-[(2R)-2-hydroxy-2-(4-methyl-1-oxo-1,3-dihydro-2-benzofuran-5-yl)ethyl]octahydropyrazino[2,1-c][1,4]oxazin-8-ium chloride]: in experiment [2], the IC50 was found to be 230 nM. Still for that read-out and setting: for `COc1cc(C(O)CN2CCN3C[C@@H](c4ccc5c(c4C)COC5=O)OC[C@@H]3C2)c(Cl)cc1C#N` (stereo partly drawn) [Example 9, (3R,9aS)-8-[2-(2-chloro-4-cyano-5-methoxyphenyl)-2-hydroxyethyl]-3-(4-methyl-1-oxo-1,3-dihydro-2-benzofuran-5-yl)octahydropyrazino[2,1-c][1,4]oxazin-5-ium chloride] the value was 430 nM. As to `Cc1c(CCN2CCN3C[C@H](c4ccc5c(c4C)COC5=O)OC[C@H]3C2)ccc2c1COC2=O` [Example 67], the IC50 in experiment [1] (setting [3]) is 70 nM. As to `Cc1c([C@@H]2CN3CCN(C[C@H](O)c4ccc5c(c4C)COC5=O)C[C@H]3CN2)ccc(F)c1C#N` [Example 102, 6-fluoro-3-((3R,9aR)-8-((R)-2-hydroxy-2-(4-methyl-1-oxo-1,3-dihydroisobenzofuran-5-yl)ethyl)octahydro-1H-pyrazino[1,2-a]pyrazin-3-yl)-2-methylbenzonitrile], the IC50 in experiment [2] was 210 nM.

On to `Cc1c([C@@H]2CN3CCN(CCc4ccc5c(c4C)COC5=O)C[C@@H]3CO2)ccc(F)c1C#N` [Example 78], for which the IC50 in experiment [1] (setting [3]) was 70 nM. As for `COc1cc(CCN2CCN3C[C@@H](c4ccc5c(c4)C[C@H](C)OC5=O)OC[C@@H]3C2)ccc1C#N` [Example 85], the IC50 in experiment [1] (setting [3]) is 90 nM. As to `COc1cc(F)c(CCN2CCN3C[C@@H](c4ccc5c(c4C)COC5=O)OC[C@@H]3C2)cc1C#N` [Example 84], in experiment [1] (setting [3]), the IC50 is 50 nM.

On to `Cc1c([C@@H]2CN3CCN(CC(O)c4cccc(-n5cnnn5)c4)C[C@@H]3CO2)ccc(F)c1C#N` (single isomer, unassigned) [Example 23], for which the half-maximal inhibitory concentration (IC50) in experiment [2] came out at 320 nM. On to `Cc1c([C@H]2CN3CCN(CCc4ccc5c(c4C)COC5=O)C[C@@H]3CO2)ccc(F)c1C#N` [Example 77], for which the IC50 in experiment [1] (setting [3]) was 70 nM.

As to `COc1cc(CCN2CCN3C[C@@H](c4ccc5c(c4)COC5=O)OC[C@@H]3C2)ccc1C#N` [Example 58], the IC50 in experiment [1] (setting [3]) worked out at 120 nM. Still for that read-out and setting: for `O=C1OCc2cc(CCN3CCN4C[C@@H](c5ccc6c(c5)COC6=O)OC[C@@H]4C3)ccc21` [Example 62] the value was 40 nM; for `COc1cc([C@H]2CN3CCN(CCc4ccc5c(c4C)COC5=O)C[C@H]3CO2)ccc1C#N` [Example 74], 80 nM.

Turning to `COc1c([C@@H]2CN3CCN(C[C@@H](O)c4ccc5c(c4C)COC5=O)C[C@H]3CO2)ccc(C#N)c1F` [Example 31, (3R,9aS)-3-(4-cyano-3-fluoro-2-methoxyphenyl)-8-[(2S)-2-hydroxy-2-(4-methyl-1-oxo-1,3-dihydro-2-benzofuran-5-yl)ethyl]octahydropyrazino[2,1-c][1,4]oxazin-8-ium chloride], in experiment [2], the IC50 came out at 650 nM.
